{"source": "patent US20140206608A1", "about": "(priority 2012, published 2014)", "key": {"[1]": {"test": "Subchronic effect on body weight in female diet-induced obese (DIO) C57BL/6NCrl mice (method 2)", "format": "in vivo", "conditions": "3 weeks; for Overall weight change: mean ± SEM", "experimental": "Female C57BL/6NCrl mice were housed in groups in a specific pathogen-free barrier facility on a 12 h light/dark cycle with free access to water and high-fat diet. After 14 weeks on high-fat diet, mice were stratified to treatment groups (n=8), so that each group had similar mean body weight.\nAn aged-matched group with ad libitum access to standard chow and water was included as standard control group.\nBefore the experiment, mice were subcutaneously (s.c.) injected with vehicle solution and weighed for 3 days to acclimate them to the procedures.\nBody weight was recorded daily.\nStatistical analyses were performed with Everstat 6.0 by repeated measures two-way ANOVA and Dunnett's post-hoc analyses (glucose profile) and 1-way-ANOVA, followed by Dunnett's post-hoc test (body weight, body fat). Differences versus vehicle-treated DIO control mice were considered statistically significant at the p<0.05 level."}, "[2]": {"molecular_target": "T1, human GIP receptor (hGIP R) (Homo sapiens, UniProt P48546)", "T1 construct": "expressed in transfected cells; host or cells: HEK-293", "T1 sequence (P48546 22-466)": "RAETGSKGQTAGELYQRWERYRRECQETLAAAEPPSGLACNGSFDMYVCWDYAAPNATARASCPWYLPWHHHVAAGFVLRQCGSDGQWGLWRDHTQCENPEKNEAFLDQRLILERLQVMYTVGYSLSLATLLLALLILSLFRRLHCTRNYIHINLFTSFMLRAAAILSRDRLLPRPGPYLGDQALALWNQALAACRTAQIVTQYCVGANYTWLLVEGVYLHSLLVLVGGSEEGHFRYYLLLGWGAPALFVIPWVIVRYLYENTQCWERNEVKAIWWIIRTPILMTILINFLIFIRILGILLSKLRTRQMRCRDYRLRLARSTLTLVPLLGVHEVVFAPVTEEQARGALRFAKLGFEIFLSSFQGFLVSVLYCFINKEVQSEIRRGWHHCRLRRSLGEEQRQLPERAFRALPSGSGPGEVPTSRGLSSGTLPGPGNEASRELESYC", "test": "cAMP response of HEK-293 cells stably expressing human GIP receptor (HTRF)", "format": "cell-based", "experimental": "cAMP content of cells was determined using a kit from Cisbio Corp. (cat. no. 62AM4PEC) based on HTRF (Homogenous Time Resolved Fluorescence). For preparation, cells were split into T175 culture flasks and grown overnight to near confluency in medium (DMEM/10% FBS). Medium was then removed and cells washed with PBS lacking calcium and magnesium, followed by proteinase treatment with accutase (Sigma-Aldrich cat. no. A6964). Detached cells were washed and resuspended in assay buffer (1×HBSS; 20 mM HEPES, 0.1% BSA, 2 mM IBMX) and cellular density determined. They were then diluted to 400000 cells/ml and 25 μl-aliquots dispensed into the wells of 96-well plates. For measurement, 25 μl of test compound in assay buffer was added to the wells, followed by incubation for 30 minutes at room temperature."}, "[3]": {"tested_on": "female diabetic dbdb-mice", "test": "4 weeks of treatment on glucose, HbA1c and oral glucose tolerance in female diabetic dbdb-mice (method 4)", "format": "in vivo", "experimental": "8 week old, female diabetic dbdb-mice of mean non-fasted glucose value of 14.5 mmol/l and a body weight of 37-40 g were used. Mice were individually marked and were adapted to housing conditions for at least one week.\n7 days prior to study start, baseline values for non-fasted glucose and HbA1c were determined, 5 days prior to study start, mice were assigned to groups and cages (5 mice per cage, 10 per group) according to their HbA1c values to ensure even distribution of lower and higher values between groups (stratification).\nMice were treated for 4 weeks, by once daily subcutaneous administration 3 hours prior to the dark phase (6 pm to 6 am). Blood samples from a tail tip incision were obtained for HbA1c on study day 21 and oral glucose tolerance was assessed in the 4th week. Oral glucose tolerance test was done in the morning without prior extra compound administration to majorly assess the effect of chronic treatment and less of acute compound administration. Mice were fasted for 4 hours prior to oral glucose administration (2 g/kg, t=0 min). Blood samples were drawn prior to glucose administration and at 15, 30, 60, 90, 120, and 180 min thereafter. Feed was returned after the last blood sampling. Results are represented as change from baseline, glucose in mmol/l and HbA1c in %.\nStatistical analyses are performed with Everstat Version 6.0 based on SAS by 1-way-ANOVA, followed by Dunnett's post-hoc test against vehicle-control. Differences are considered statistically significant at the p<0.05 level."}, "[4]": {"test": "in vivo", "conditions": "female, Gottinger, minipig, plasma, sc, 0.1 mg/kg", "method": "Female Gottinger minipigs were dosed 0.1 mg/kg subcutaneously (s.c.). Blood samples were collected after 0.25, 0.5, 1, 2, 4, 8, 24, 32, 48, 56 and 72 hours post application. Plasma samples were analyzed after protein precipitation via liquid chromatography mass spectrometry (LC/MS). PK parameters and half-life were calculated using WinonLin Version 5.2.1 (non-compartment model)."}, "[5]": {"conditions": "10 μg/kg s.c. once daily, p<0.05"}}, "note": "*1 amine or outer side, *2 acyl side, *3 side chain or, on linkers, in order; H or OH if unused. Where a SMILES comes first, the peptide text is derived from it. Side-chain parts run from the residue outwards. [ ]: non-standard residue; d: D form. The star is where a group is joined. γGlu = O=C(O)[C@H](CCC(=O)[*:2])N[*:1]; Stearoyl = CCCCCCCCCCCCCCCCCC(=O)*; Aib = CC(C)(N)C(=O)O", "data": [{"smiles": "CCCCCCCCCCCCCCCCCC(=O)N[C@@H](CCC(=O)NCCCC[C@H](NC(=O)[C@H](CCC(N)=O)NC(=O)[C@@H](NC(=O)[C@H](CO)NC(=O)[C@H](CC(C)C)NC(=O)[C@H](CC(=O)O)NC(=O)[C@H](CO)NC(=O)[C@@H](NC(=O)[C@H](Cc1ccccc1)NC(=O)[C@@H](NC(=O)CNC(=O)[C@H](CCC(=O)O)NC(=O)C(C)(C)NC(=O)[C@@H](N)Cc1ccc(O)cc1)[C@@H](C)O)[C@@H](C)O)[C@@H](C)CC)C(=O)N[C@@H](CCC(=O)O)C(=O)N[C@@H](CCC(=O)O)C(=O)N[C@@H](CCC(=O)O)C(=O)N[C@@H](C)C(=O)N[C@H](C(=O)N[C@@H](CCCNC(=N)N)C(=O)N[C@@H](CC(C)C)C(=O)N[C@@H](Cc1ccccc1)C(=O)N[C@H](C(=O)N[C@@H](CCC(=O)O)C(=O)N[C@@H](Cc1c[nH]c2ccccc12)C(=O)N[C@@H](CC(C)C)C(=O)N[C@@H](CCCCN)C(=O)N[C@@H](C)C(=O)NCC(=O)NCC(=O)N1CCC[C@H]1C(=O)N[C@@H](CO)C(=O)N[C@@H](CO)C(=O)NCC(=O)N[C@@H](C)C(=O)N1CCC[C@H]1C(=O)N1CCC[C@H]1C(=O)N1CCC[C@H]1C(=O)N[C@@H](CO)C(N)=O)[C@@H](C)CC)C(C)C)C(=O)O", "note": "[SEQ ID NO: 10, Y-Aib-E-G-T-F-T-S-D-L-S-I-Q-K(γE-x70)-EEEAVRLFIEWLKAGGPSSGAPPPS-NH2] (H-Y[Aib]EGTFTSDLSIQK([γGlu-Stearoyl])EEEAVRLFIEWLKAGGPSSGAPPPS-NH2)", "values": [{"measurement": "decrease of body weight, relative change from baseline", "setting": "[1]; 3 μg/kg s.c. once daily", "result": 8.6, "unit": "%"}, {"measurement": "Overall weight change", "setting": "[1]; 3 μg/kg s.c. once daily", "result": "-3.6 ± 1.0", "unit": "g"}, {"measurement": "decrease of body weight, relative change from baseline", "setting": "[1]; 10 μg/kg s.c. once daily", "result": 14.3, "unit": "%"}, {"measurement": "Overall weight change", "setting": "[1]; 10 μg/kg s.c. once daily", "result": "-5.5 ± 0.8", "unit": "g"}, {"measurement": "EC50", "setting": "[2]", "result": 6.7, "unit": "pM"}, {"measurement": "non-fasted glucose compared to vehicle control", "setting": "[3]; 10 μg/kg s.c. once daily", "result": "tended to reduce non-fasted glucose"}, {"measurement": "HbA1c compared to vehicle control", "setting": "[3]; [5]", "result": "prevented an increase of HbA1c in a statistical significant manner"}, {"measurement": "reduction of AUC under the glucose curve compared to vehicle control", "setting": "[3]; [5]", "result": "reached statistical significance"}, {"measurement": "oral glucose tolerance", "setting": "[3]; 3 and 10 μg/kg s.c. once daily", "result": "improved oral glucose tolerance"}, {"measurement": "Cmax", "setting": "[4]", "result": 588, "unit": "ng/mL"}, {"measurement": "half-life", "setting": "[4]", "result": 20.1, "unit": "h"}]}]}
